Source: patent publication US20260062426A1, “CYCLIN DEPENDENT KINASE DEGRADERS AND METHODS OF USE THEREOF” (Differentiated Therapeutics Inc, priority 2023, published 2026)

Columns and labels:
Format in all cases: cell-based
CDK2 = target: T1, CDK2 (Homo sapiens, UniProt P24941); assay: CDK2 HIBIT PQ (protein quantification), degradation; details: for CDK2 HIBIT PQ Max (%): Max = Maximum; for DC50: PQ = Protein Quantification
T1 construct: host or cells: HEK293
In short: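 DC50 and maximal degradation were derived from a HiBiT lytic readout in HEK293 cells carrying HiBiT-tagged CDK2. Cells were seeded in 384-well plates at 1.6×10^5 cells/well in 50 uL of DMEM with 10% FBS, incubated overnight at 37° C and 5% CO2, treated with compound for 6 hours, and then given 20 μL of HiBiT reagent with 20 minutes of shaking at room temperature before an EnVision reading. Wells with 0.1% DMSO served as the high control and wells with medium only as the low control.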

CDK9 = target: T2, CDK9 (Homo sapiens, UniProt P50750); assay: CDK9 HIBIT PQ (protein quantification), degradation; details: for Dmax: Max = Maximum; for DC50: PQ = Protein Quantification
T2 construct: host or cells: HEK293
In short: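 HEK293 cells bearing HiBiT-tagged CDK9 were cultured in DMEM with 10% FBS, plated into 384-well plates at 1.6×10^5 cells/well in 50 uL, and left overnight at 37° C and 5% CO2. A HiBiT assay measured CDK9 protein after compound treatment, with 0.1% DMSO-treated cells as the high control and culture medium alone as the low control. These readings gave the maximal degradation, Dmax and DC50.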

CCNE1 = target: T3, CCNE1 (Homo sapiens, UniProt P24864+P24941); assay: CCNE1 HIBIT PQ (protein quantification), degradation; details: for CCNE1 HIBIT PQ Max (%): Max = Maximum; for DC50: PQ = Protein Quantification
T3 construct: host or cells: HEK293
In short: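 HEK293 cells with HiBiT-tagged CCNE1 were cultured in EMEM containing 10% FBS, plated at 1.6×10⁵ cells/well in 50 uL in 384-well plates and left overnight at 37° C with 5% CO₂. After 6 hours of compound exposure, a HiBiT assay measured CCNE1 protein, with 0.1% DMSO-treated cells as the high control and medium alone as the low control. DC50 and maximal degradation came from these readings.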

T2 sequence (P50750 whole entry): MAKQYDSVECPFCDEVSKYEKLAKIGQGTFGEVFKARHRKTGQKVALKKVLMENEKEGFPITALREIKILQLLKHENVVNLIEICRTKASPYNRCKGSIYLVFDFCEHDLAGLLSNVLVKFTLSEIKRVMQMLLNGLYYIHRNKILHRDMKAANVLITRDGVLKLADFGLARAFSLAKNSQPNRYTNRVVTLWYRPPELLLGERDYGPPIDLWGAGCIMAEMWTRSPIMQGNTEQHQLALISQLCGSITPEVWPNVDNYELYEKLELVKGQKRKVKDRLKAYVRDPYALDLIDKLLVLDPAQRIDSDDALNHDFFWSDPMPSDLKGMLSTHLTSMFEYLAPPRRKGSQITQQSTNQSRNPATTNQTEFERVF

| Structure (SMILES) | CDK2 HIBIT PQ Max (%) (CDK2) | Dmax (CDK9) [%] | DC50 (CDK9) [nM] | CCNE1 HIBIT PQ Max (%) (CCNE1) | DC50 (CDK2) [nM] | DC50 (CCNE1) [nM] |
| --- | --- | --- | --- | --- | --- | --- |
| CC(C)Oc1c(-c2cn[nH]c2)ncn2nc(NC3CCN(S(=O)(=O)c4cccc(CN5CC6(C5)CN(c5ccc7c(c5)CN(C5CCC(=O)NC5=O)C7=O)C6)c4)CC3)nc12 (racemic) [Compound 2] | 46 | 92 | 25.7 | 41 |  |  |
| CC(C)Oc1c(-c2cn[nH]c2)ncn2nc(NC3CCN(S(=O)(=O)c4cccc(CN5CCN(c6cc7c(cc6F)C(=O)N(C6CCC(=O)NC6=O)C7)CC5)c4)CC3)nc12 (racemic) [Compound 3] | 66 | 102 | 19.4 | 64 | 3.12 | 8.88 |
| CC(C)Oc1c(-c2cn[nH]c2)ncn2nc(NC3CCN(S(=O)(=O)c4cccc(CN5CC(c6ccc7c(c6)CN(C6CCC(=O)NC6=O)C7=O)C5)c4)CC3)nc12 (racemic) [Compound 4] | 63 | 4 |  | 65 | 4.14 | 7.1 |
| CC(C)Oc1c(-c2cn[nH]c2)ncn2nc(NC3CCN(S(=O)(=O)N4CCC(CN5CCC(c6cccc7c6n(C)c(=O)n7C6CCC(=O)NC6=O)CC5)CC4)CC3)nc12 (racemic) [Compound 6, rac-(R)-3-(4-(1-((1-((4-((8-isopropoxy-7-(1H-pyrazol-4-yl)-[1,2,4]triazolo[1,5-c]pyrimidin-2-yl)amino)piperidin-1-yl)sulfonyl)piperidin-4-yl)methyl)piperidin-4-yl)-3-methyl-2-oxo-2,3-dihydro-1H-benzo[d]imidazol-1-yl)piperidine-2,6-dione] | 80 | 103 | 1.48 | 73 | 0.59 | 0.88 |
| CC(C)Oc1c(-c2cn[nH]c2)ncn2nc(Nc3ccc(S(=O)(=O)c4cccc(N5CCN(CC6CCN(c7ccc8c(c7)CN(C7CCC(=O)NC7=O)C8=O)CC6)CC5)c4)cc3F)nc12 (racemic) [Compound 9] | 89 | 97 | 11.7 | 72 | 1.44 | 6.38 |
| CC(C)Oc1c(-c2cn[nH]c2)ncn2nc(Nc3ccc(S(=O)(=O)c4cccc(CN5CC6(C5)CN(c5ccc7c(c5)CN(C5CCC(=O)NC5=O)C7=O)C6)c4)cc3F)nc12 (racemic) [Compound 10] | 86 | 54 | 25.5 | 60 | 3.76 | 10.6 |
| CC(C)Oc1c(-c2cn[nH]c2)ncn2nc(Nc3ccc(S(=O)(=O)c4cccc(CN5CCN(c6cc7c(cc6F)C(=O)N(C6CCC(=O)NC6=O)C7)CC5)c4)cc3F)nc12 (racemic) [Compound 11] | 90 | 50 |  | 65 | 2.25 | 14.4 |
| CC(C)Oc1c(-c2cn[nH]c2)ncn2nc(Nc3ccc(S(=O)(=O)c4cccc(CN5CC(c6ccc7c(c6)CN(C6CCC(=O)NC6=O)C7=O)C5)c4)cc3F)nc12 (racemic) [Compound 12] | 89 | 8 |  | 62 | 2.2 | 4.06 |
| CC(C)Oc1c(-c2cn[nH]c2)ncn2nc(Nc3ccc(S(=O)(=O)c4cccc(CN5CCC(c6cccc7c6n(C)c(=O)n7C6CCC(=O)NC6=O)CC5)c4)cc3F)nc12 (racemic) [Compound 13] | 85 | 53 | 6.6 | 44 | 0.42 |  |
| CC(C)Oc1c(-c2cn[nH]c2)ncn2nc(Nc3ccc(S(=O)(=O)N4CCC(CN5CCC(c6cccc7c6n(C)c(=O)n7C6CCC(=O)NC6=O)CC5)CC4)cc3F)nc12 (racemic) [Compound 14, rac-(R)-3-(4-(1-((1-((3-fluoro-4-((8-isopropoxy-7-(1H-pyrazol-4-yl)-[1,2,4]triazolo[1,5-c]pyrimidin-2-yl)amino)phenyl)sulfonyl)piperidin-4-yl)methyl)piperidin-4-yl)-3-methyl-2-oxo-2,3-dihydro-1H-benzo[d]imidazol-1-yl)piperidine-2,6-dione] | 70 | 74 | 1.12 | 33 | 0.24 |  |
| CC(C)Oc1c(-c2cn[nH]c2)ncn2nc(Nc3ccc(S(=O)(=O)N(C)CCCN4CCC(c5ccc6c(c5)n(C)c(=O)n6[C@H]5CCC(=O)NC5=O)CC4)cc3F)nc12 (racemic) [Compound 16] | 91 | 94 | 0.52 | 79 | < 0.152 | 0.21 |
| CC(C)Oc1c(-c2cn[nH]c2)ncn2nc(Nc3ccc(S(=O)(=O)N(C)CCCN4CCN(c5cccc6c5n(C)c(=O)n6C5CCC(=O)NC5=O)CC4)cc3F)nc12 (racemic) [Compound 17] | 91 | 77 | 2.7 | 83 | 0.26 | 0.94 |
| CC(C)Oc1c(-c2cn[nH]c2)ncn2nc(Nc3ccc(S(=O)(=O)N(C)CCCN4CCC(c5cccc6c5n(C)c(=O)n6C5CCC(=O)NC5=O)CC4)cc3F)nc12 (racemic) [Compound 18] | 90 | 87 | 2.19 | 82 | 0.6 | 0.64 |
| CC(C)Oc1c(-c2cn[nH]c2)ncn2nc(NC3CCN(S(=O)(=O)N(C)CCCN4CCC(c5cccc6c5n(C)c(=O)n6C5CCC(=O)NC5=O)CC4)CC3)nc12 (racemic) [Compound 19] | 90 | 77 | 3.8 | 85 | 0.87 | 0.77 |
| CC(C)Oc1c(-c2cn[nH]c2)ncn2nc(Nc3ccc(S(=O)(=O)c4cccc(N5CCC(CN6CCN(c7ccc8c(c7)CN(C7CCC(=O)NC7=O)C8=O)CC6)CC5)c4)cc3F)nc12 (racemic) [Compound 22] | 93 | 97 | 16.1 | 71 | 1.7 | 10.9 |
| CC(C)Oc1c(-c2cn[nH]c2)ncn2nc(Nc3ccc(S(=O)(=O)c4cccc(OC5CN(C6CCN(c7ccc8c(c7)CN(C7CCC(=O)NC7=O)C8=O)CC6)C5)c4)cc3F)nc12 (racemic) [Compound 23] | 87 | 61 | 10.6 | 42 | 1.1 |  |
| CC(C)Oc1c(-c2cn[nH]c2)ncn2nc(Nc3ccc(S(=O)(=O)c4cccc(CN5CCC(c6ccc7c(c6)n(C)c(=O)n7C6CCC(=O)NC6=O)CC5)c4)cc3F)nc12 (racemic) [Compound 25] | 81 | 41 |  | 21 | 0.2 |  |
| CC(C)Oc1c(-c2cn[nH]c2)ncn2nc(Nc3ccc(S(=O)(=O)N(C)CCCN4CCC(c5cccc6c5n(C)c(=O)n6C5CCC(=O)N(C)C5=O)CC4)cc3F)nc12 (racemic) [Compound 28] | 6 | 2 |  | 0 |  |  |
| CC(C)Oc1c(-c2cn[nH]c2)ncn2nc(Nc3ccc(S(=O)(=O)c4cccc(CC5CC(c6ccc7c(c6)n(C)c(=O)n7[C@H]6CCC(=O)NC6=O)C5)c4)cc3F)nc12 (mixture of isomers) [Compound 31, (3S)-3-[5-(3-{[3-(3-fluoro-4-{[8-isopropoxy-7-(1H-pyrazol-4-yl)-[1,2,4]triazolo[1,5-c]pyrimidin-2-yl]amino}benzenesulfonyl)phenyl]methyl}cyclobutyl)-3-methyl-2-oxo-1,3-benzodiazol-1-yl]piperidine-2,6-dione] | 81 | 9 |  | 26 | 1.7 |  |
| CC(C)Oc1c(-c2cn[nH]c2)ncn2nc(Nc3ccc(S(=O)(=O)c4cccc(CC5CC(c6ccc(C(=O)NC7CCC(=O)NC7=O)cc6)C5)c4)cc3F)nc12 (racemic) [Compound 32, rac-N-[(3R)-2,6-dioxopiperidin-3-yl]-4-(3-{[3-(3-fluoro-4-{[8-isopropoxy-7-(1H-pyrazol-4-yl)-[1,2,4]triazolo[1,5-c]pyrimidin-2-yl]amino}benzenesulfonyl)phenyl]methyl}cyclobutyl)benzamide] | 89 | 62 | 396 | 62 | 78.1 | > 3000 |
| CC(C)Oc1c(-c2cn[nH]c2)ncn2nc(Nc3ccc(S(=O)(=O)c4cccc(CN5CCN(c6ccc7c(N8CCC(=O)NC8=O)nn(C)c7c6)CC5C(C)C)c4)cc3F)nc12 (single isomer, unassigned) [Compound 106] | 94 |  |  | 59 | 8.3 | 39.4 |
| CC(C)Oc1c(-c2cn[nH]c2)ncn2nc(Nc3ccc(S(=O)(=O)c4cccc(CN5CCN(c6ccc7c(N8CCC(=O)NC8=O)nn(C)c7c6)CC5C(C)C)c4)cc3F)nc12 (single isomer, unassigned) [Compound 107] | 93 |  |  | 71 | 12 | 63.1 |
